103 molecules from the OPERA property sets (Mansouri et al. 2018) can be followed below.

For orientation: logP means a log measure of how a compound divides between an organic and an aqueous phase. A low value points to a more hydrophilic compound. Broadly, the solubility is the concentration that dissolves in the medium under given conditions. Read a high solubility as a readily soluble substance.

Molecules are shown by their SMILES. Converted amounts (≈) assume the structure as drawn.

The conditions of the data set: for solubility: 25 °C.

Molecule `Clc1ccc(Oc2c(Cl)ccc(Cl)c2Cl)cc1Cl` returned a logP of 6.31.

The molecule `Clc1cccc(Oc2ccc(Cl)c(Cl)c2Cl)c1` yielded a logP of 6.07.

Turning to `Clc1ccc(Oc2cc(Cl)c(Cl)cc2Cl)cc1`, the logP was 5.99.

In turn, `Clc1ccc(Oc2c(Cl)c(Cl)cc(Cl)c2Cl)c(Cl)c1Cl` came in with a logP of 7.14.

Molecule `Clc1ccc(Oc2c(Cl)cccc2Cl)cc1` showed a lipophilicity (logP) of 5.3 and a solubility of 1.23 µM (≈ 0.337 µg/mL).

With `Clc1cc(Cl)c(Oc2c(Cl)ccc(Cl)c2Cl)cc1Cl`, the logP came to 6.47.

Regarding `Clc1ccc(Oc2ccccc2Cl)cc1`, the logP was 5.03 and the solubility is 3.02 µM (≈ 0.722 µg/mL).

For the molecule `Clc1cc(Cl)c(Oc2ccccc2)c(Cl)c1`, the lipophilicity (logP) was found to be 5.32.

Consider `Clc1ccc(Oc2cc(Cl)c(Cl)c(Cl)c2)c(Cl)c1`, for which the logP worked out at 6.63.

`Clc1ccccc1Oc1ccc(Cl)c(Cl)c1Cl` showed a logP of 5.72.

In turn, `Clc1ccc(Oc2cc(Cl)ccc2Cl)cc1` yielded a logP of 5.66 and a solubility of 3.63 µM (≈ 0.993 µg/mL).

Take `Clc1cc(Oc2c(Cl)ccc(Cl)c2Cl)c(Cl)c(Cl)c1Cl`: the lipophilicity (logP) was 6.98.

On to `Clc1ccc(Oc2cc(Cl)c(Cl)c(Cl)c2Cl)cc1Cl`, for which the logP worked out at 7.07. The logP values of the last two molecules are within 0.2 log units of each other.

`Clc1ccc(Oc2cc(Cl)c(Cl)c(Cl)c2)cc1Cl` yielded a lipophilicity (logP) of 6.83.

As for `Clc1ccc(Oc2cc(Cl)cc(Cl)c2Cl)c(Cl)c1`, the lipophilicity (logP) was determined as 6.54.

Molecule `Clc1ccc(Oc2c(Cl)cccc2Cl)cc1Cl` returned a logP of 5.7.

On to `Clc1ccc(Cl)c(Oc2cc(Cl)c(Cl)cc2Cl)c1`, for which the logP came to 6.22.

`Clc1ccc(Oc2ccc(Cl)c(Cl)c2Cl)cc1Cl` had a log partition coefficient (logP) of 6.51.

On to `Clc1cc(Cl)c(Cl)c(Oc2ccccc2)c1Cl`, for which the log partition coefficient (logP) stood at 5.82.

`Clc1cc(Cl)c(Oc2cc(Cl)c(Cl)cc2Cl)cc1Cl` gave a logP of 6.72.

`Clc1c(Cl)c(Cl)c(Oc2c(Cl)c(Cl)c(Cl)c(Cl)c2Cl)c(Cl)c1Cl`: the logP amounted to 8.16.

For `Clc1ccc(Oc2cccc(Cl)c2)cc1`, the logP was 5.13 and the solubility is 17 µM (≈ 4.06 µg/mL).

The molecule `Clc1cc(Cl)c(Oc2cccc(Cl)c2Cl)cc1Cl` yielded a logP of 6.22.

`Clc1ccc(Oc2c(Cl)c(Cl)c(Cl)c(Cl)c2Cl)cc1Cl` returned a logP of 7.31.

The molecule `Clc1ccc(Oc2c(Cl)ccc(Cl)c2Cl)c(Cl)c1` came in with a log partition coefficient (logP) of 6.06.

Consider `Clc1ccc(Cl)c(Oc2ccccc2)c1Cl`, for which the logP came to 5.35.

In turn, `Clc1ccc(Oc2cc(Cl)c(Cl)c(Cl)c2Cl)c(Cl)c1Cl` registered a logP of 7.28.

`Clc1ccc(Oc2c(Cl)c(Cl)c(Cl)c(Cl)c2Cl)cc1`: the logP is 6.95.

As for `Clc1cccc(Oc2ccccc2)c1`, the log partition coefficient (logP) was found to be 4.75 and the solubility worked out at 61.6 µM (≈ 12.6 µg/mL).

Turning to `Clc1cc(Cl)cc(Oc2ccc(Cl)c(Cl)c2Cl)c1`, the lipophilicity (logP) amounted to 6.58.

Molecule `Clc1ccc(Oc2c(Cl)cc(Cl)cc2Cl)cc1` displayed a logP of 5.92.

In the case of `Clc1cc(Cl)cc(Oc2ccccc2)c1`, the logP was found to be 5.21 and the solubility was 8.7 µM (≈ 2.08 µg/mL).

In turn, `Clc1cc(Cl)c(Oc2ccc(Cl)c(Cl)c2Cl)cc1Cl` came in with a lipophilicity (logP) of 7.01.

`Clc1ccc(Oc2c(Cl)ccc(Cl)c2Cl)cc1` had a logP of 5.64.

The molecule `Clc1ccc(Oc2ccc(Cl)c(Cl)c2)c(Cl)c1` had a log partition coefficient (logP) of 6.13.

Regarding `Clc1ccccc1Oc1ccccc1`, the logP is 4.45 and the solubility turned out to be 16.6 µM (≈ 3.4 µg/mL).

For `Clc1ccc(Oc2c(Cl)cccc2Cl)c(Cl)c1Cl`, the log partition coefficient (logP) came to 6.11.

In the case of `Clc1cc(Cl)c(Oc2ccccc2)c(Cl)c1Cl`, the logP was found to be 5.88.

`Clc1ccc(Oc2ccccc2)c(Cl)c1` displayed a logP of 4.93 and a solubility of 23.4 µM (≈ 5.6 µg/mL).

In turn, `Clc1ccc(Oc2ccc(Cl)c(Cl)c2)cc1` registered a log partition coefficient (logP) of 5.88 and a solubility of 2.19 µM (≈ 0.598 µg/mL).

For `Clc1cc(Cl)c(Oc2cc(Cl)c(Cl)cc2Cl)c(Cl)c1`, the lipophilicity (logP) is 6.49.

As for `Clc1ccc(Oc2c(Cl)cc(Cl)cc2Cl)c(Cl)c1`, the lipophilicity (logP) amounted to 6.11.

`Clc1cc(Cl)c(Cl)c(Oc2cc(Cl)c(Cl)c(Cl)c2)c1` had a logP of 7.01.

For the molecule `Clc1ccc(Oc2cc(Cl)cc(Cl)c2Cl)cc1`, the logP is 6.01.

As to `Clc1ccc(Oc2cccc(Cl)c2Cl)cc1Cl`, the log partition coefficient (logP) was 5.99. The logP values of the last two molecules are within 0.2 log units of each other.

As to `Clc1ccc(Oc2c(Cl)c(Cl)c(Cl)c(Cl)c2Cl)c(Cl)c1Cl`, the logP came to 7.84.

Regarding `Clc1cc(Cl)c(Oc2c(Cl)c(Cl)c(Cl)c(Cl)c2Cl)cc1Cl`, the lipophilicity (logP) was 7.81.

In turn, `Clc1cccc(Oc2ccc(Cl)cc2Cl)c1` came in with a logP of 5.65 and a solubility of 3.62 µM (≈ 0.99 µg/mL).

Consider `Clc1cc(Oc2ccccc2)cc(Cl)c1Cl`, for which the logP was found to be 5.7.

`Clc1cc(Oc2c(Cl)ccc(Cl)c2Cl)cc(Cl)c1Cl` came in with a log partition coefficient (logP) of 6.65.

The molecule `Clc1cc(Cl)cc(Oc2ccc(Cl)cc2Cl)c1` came in with a logP of 6.13.

The molecule `Clc1cc(Cl)c(Oc2c(Cl)cccc2Cl)cc1Cl` came in with a logP of 5.98.

`Clc1ccc(Cl)c(Oc2ccc(Cl)c(Cl)c2Cl)c1` gave a lipophilicity (logP) of 6.51.

`Clc1ccc(Oc2ccccc2Cl)cc1Cl` displayed a logP of 5.5 and a solubility of 6.32 µM (≈ 1.73 µg/mL).

For the molecule `Clc1ccc(Oc2ccccc2)cc1Cl`, the logP is 4.99 and the solubility stood at 19 µM (≈ 4.55 µg/mL).

`Clc1ccc(Oc2cccc(Cl)c2Cl)c(Cl)c1` gave a lipophilicity (logP) of 5.88.

Turning to `Clc1cc(Cl)cc(Oc2ccc(Cl)c(Cl)c2)c1`, the log partition coefficient (logP) was 6.22.

Molecule `Clc1cc(Cl)cc(Oc2cc(Cl)c(Cl)cc2Cl)c1` displayed a lipophilicity (logP) of 6.66.

Regarding `Clc1ccc(Oc2ccc(Cl)c(Cl)c2Cl)c(Cl)c1Cl`, the logP amounted to 6.82.

The molecule `Clc1ccc(Oc2c(Cl)c(Cl)c(Cl)c(Cl)c2Cl)c(Cl)c1` returned a logP of 7.31.

Turning to `Clc1ccc(Oc2cc(Cl)c(Cl)c(Cl)c2Cl)cc1`, the lipophilicity (logP) was determined as 6.61.

As for `Clc1ccc(Cl)c(Oc2ccc(Cl)c(Cl)c2)c1`, the log partition coefficient (logP) was 6.11.

`Clc1cc(Cl)c(Cl)c(Oc2ccc(Cl)c(Cl)c2)c1` yielded a log partition coefficient (logP) of 6.52.

`Clc1cc(Oc2ccc(Cl)c(Cl)c2Cl)cc(Cl)c1Cl` came in with a logP of 6.99.

Consider `Clc1ccc(Oc2ccccc2Cl)c(Cl)c1`, for which the lipophilicity (logP) came out at 4.96 and the solubility is 11.2 µM (≈ 3.07 µg/mL).

Molecule `Clc1ccc(Oc2cc(Cl)c(Cl)cc2Cl)c(Cl)c1` showed a log partition coefficient (logP) of 6.38.

Consider `Clc1ccc(Oc2cc(Cl)c(Cl)c(Cl)c2Cl)c(Cl)c1`, for which the logP turned out to be 6.72.

Molecule `Clc1cc(Oc2c(Cl)c(Cl)cc(Cl)c2Cl)c(Cl)c(Cl)c1Cl` came in with a lipophilicity (logP) of 7.63.

`Clc1ccc(Oc2c(Cl)c(Cl)cc(Cl)c2Cl)cc1Cl` registered a lipophilicity (logP) of 6.78.

`Clc1cccc(Oc2cc(Cl)c(Cl)cc2Cl)c1` displayed a log partition coefficient (logP) of 6.14.

Molecule `Clc1cc(Cl)c(Oc2ccc(Cl)c(Cl)c2)c(Cl)c1` had a lipophilicity (logP) of 6.44.

In turn, `Clc1ccc(Oc2cc(Cl)c(Cl)c(Cl)c2)cc1` came in with a logP of 6.3.

As to `Clc1cccc(Oc2ccc(Cl)c(Cl)c2Cl)c1Cl`, the logP was determined as 6.3.

Consider `Clc1ccc(Oc2ccc(Cl)c(Cl)c2)cc1Cl`, for which the logP came out at 6.36.

Molecule `Clc1cc(Cl)c(Oc2ccccc2Cl)cc1Cl` returned a logP of 5.97.

As for `Clc1ccc(Oc2ccccc2)cc1`, the logP is 4.7.

In turn, `Clc1ccc(Oc2ccc(Cl)cc2Cl)c(Cl)c1` gave a log partition coefficient (logP) of 5.95.

Turning to `Clc1ccc(Oc2c(Cl)c(Cl)cc(Cl)c2Cl)cc1`, the log partition coefficient (logP) came out at 6.41.

Consider `Clc1cc(Oc2cc(Cl)c(Cl)c(Cl)c2Cl)c(Cl)c(Cl)c1Cl`, for which the logP is 7.78.

`Clc1cccc(Oc2ccc(Cl)c(Cl)c2)c1` had a lipophilicity (logP) of 5.74 and a solubility of 3.66 µM (≈ 1 µg/mL).

Consider `Clc1ccc(Oc2cc(Cl)c(Cl)cc2Cl)cc1Cl`, for which the lipophilicity (logP) worked out at 6.6.

The molecule `Clc1ccc(Oc2c(Cl)cc(Cl)c(Cl)c2Cl)cc1` yielded a log partition coefficient (logP) of 6.47.

In the case of `Clc1cc(Cl)c(Cl)c(Oc2cc(Cl)c(Cl)cc2Cl)c1`, the log partition coefficient (logP) came out at 6.65.

`Clc1cc(Oc2c(Cl)c(Cl)c(Cl)c(Cl)c2Cl)c(Cl)c(Cl)c1Cl`: the logP was determined as 8.07.

On to `Clc1cc(Cl)c(Oc2c(Cl)c(Cl)cc(Cl)c2Cl)cc1Cl`, for which the log partition coefficient (logP) was 7.13.

As to `Clc1ccc(Oc2c(Cl)ccc(Cl)c2Cl)c(Cl)c1Cl`, the logP was determined as 6.47.

As for `Clc1cc(Cl)c(Cl)c(Oc2ccccc2)c1`, the logP was 5.62 and the solubility was determined as 6.47 µM (≈ 1.77 µg/mL).

Regarding `Clc1cccc(Cl)c1Oc1ccccc1`, the logP came out at 4.64 and the solubility is 8.7 µM (≈ 2.08 µg/mL).

`Clc1ccc(Oc2cccc(Cl)c2Cl)cc1` showed a lipophilicity (logP) of 5.63 and a solubility of 4.9 µM (≈ 1.34 µg/mL).

Take `Clc1ccc(Oc2ccccc2)c(Cl)c1Cl`: the logP worked out at 5.55.

As for `Clc1ccc(Oc2cc(Cl)cc(Cl)c2)cc1`, the log partition coefficient (logP) stood at 5.77 and the solubility was determined as 3.02 µM (≈ 0.826 µg/mL).

Turning to `Clc1ccc(Oc2ccc(Cl)c(Cl)c2Cl)c(Cl)c1`, the logP is 6.28.

In the case of `Clc1cc(Oc2cc(Cl)c(Cl)c(Cl)c2Cl)cc(Cl)c1Cl`, the logP came to 7.55.

`Clc1c(Cl)c(Cl)c(Oc2ccccc2)c(Cl)c1Cl` displayed a logP of 6.37.

Turning to `Clc1ccc(Oc2ccc(Cl)c(Cl)c2Cl)cc1`, the logP was determined as 6.14.

For `Clc1ccc(Cl)c(Oc2ccccc2)c1`, the lipophilicity (logP) stood at 5.13 and the solubility is 10.7 µM (≈ 2.56 µg/mL).

The molecule `Clc1ccc(Oc2ccc(Cl)cc2Cl)cc1` gave a logP of 5.53 and a solubility of 0.603 µM (≈ 0.165 µg/mL).

`Clc1ccc(Oc2cc(Cl)ccc2Cl)c(Cl)c1` registered a logP of 5.78.

`Clc1cc(Cl)c(Oc2cc(Cl)c(Cl)c(Cl)c2)cc1Cl` displayed a log partition coefficient (logP) of 7.11.

On to `Clc1cccc(Oc2ccccc2)c1Cl`, for which the lipophilicity (logP) was 5.

In turn, `Clc1ccc(Oc2c(Cl)cc(Cl)c(Cl)c2Cl)c(Cl)c1` gave a logP of 6.84.

The molecule `Clc1ccc(Oc2ccc(Cl)cc2)cc1` had a lipophilicity (logP) of 5.25.

For the molecule `Clc1cc(Cl)c(Oc2cc(Cl)c(Cl)c(Cl)c2Cl)cc1Cl`, the log partition coefficient (logP) amounted to 7.46.
